In brackets after ≈: the same amount, converted by molar mass.
What was measured:
[1] = Uninoculated solubility control plate (drug precipitation in test media); format: physicochemical; conditions: uninoculated solubility control plates; BisEDT observation at 32 μg/mL
[2] = system: S. epidermidis biofilm; test: Biofilm prevention concentration (BPC), BisEDT and antibiotics; format: cell-based, Staphylococcus epidermidis; conditions: regardless of antibiotic employed
Method: S. epidermidis grown in TSB+2% glucose in polystyrene plates for 48 h at 37° C. Gatifloxacin (GF), clindamycin (CM), minocycline (MC), gentamicin (GM), vancomycin (VM), cefazolin (CZ), nafcillin (NC), and rifampicin (RP). […]

[3] = system: S. aureus strains; test: In vitro inhibition from PMMA cement bead vehicle; format: cell-based, Staphylococcus aureus; conditions: with and without Tobramicin and Vancomycin
[4] = system: S. aureus; test: Contaminated open fracture, rat femur critical defect model; format: in vivo; conditions: BT gel 5 mg/ml, 1 ml in defect, with Cefazolin 5 mgKg^−1 s.c. twice daily 3 days, day 14
Description: Standard errors of the mean are shown as error bars. Animals euthanized early are not excluded from the analysis, however samples from one animal in group 2 have been excluded due to gross contamination.
The aim of this study was to determine whether BTs will reduce infection in a contaminated open fracture model either on their own or with antibiotics. The contaminated rat femur critical defect model is a well-accepted model and was used for the experiments described in this Example. This model offers a standardized model for comparing various possible treatments and their effects on reducing infection and/or improving healing.
Three formulations of microparticulate BTs were produced in a clinically useful hydrogel gel form as described herein.
Two treatment arms were used: in the first arm, BT was used singularly; in the second arm BT was used in conjunction with a systemic antibiotic (ABx).
Six hours after inoculation with S. aureus, the wound was debrided, irrigated with saline and 1 ml of BT gel inserted within the defect.
Six hours after inoculation with S. aureus, the wound was debrided, irrigated with saline and 1 ml of BT gel added inserted within the defect. The antibiotic used was Cefazolin at a dose equivalent to 5 mgKg^−1 delivered via sub-cutaneous injection twice daily for a total of 3-days following the injury. The first dose was administered immediately prior to debridement.
Six hours after inoculation with S. aureus, the wound was debrided and irrigated with saline. The control animals were also treated with Cefazolin as per the regime described above.
The procedure for the in vivo rat injury model was performed as described by Chen et al. (2002 J. Orthop. Res. 20:142; 2005 J. Orthop. Res. 23:816; 2006 J. Bone Joint Surg. Am. 88:1510; 2007 J. Orthop. Trauma 21:693). The rats were anesthetized and prepped for surgery. The anterolateral aspect of the femoral shaft was exposed through a 3-cm incision. The periosteum and attached muscle was stripped from the bone. A polyacetyl plate (27×4×4 mm) was placed on the anterolateral surface of the femur. The plates were predrilled to accept 0.9-mm diameter threaded Kirschner wires. The bases of these plates were formed to fit the contour of the femoral shaft. Pilot holes were drilled through both cortices of the femur using the plate as a template and threaded Kirschner wire was inserted through the plate and femur. The notches that were 6 mm apart on the plate served as a guide for bone removal. A small oscillating saw was used to create the defect while the tissue was cooled by continuous irrigation in an effort to prevent thermal damage.
Several groups of 10 animals each were inoculated with 1×10^5 CFU of S. aureus and treated with BT alone or in combination with antibiotics 6 hours post-inoculation as described above. The groups were as follows: Bis-EDT gel; MB-11 gel; MB-8-2 gel; Bis-EDT gel & Abx; MB-11 gel & Abx; MB-8-2 gel & Abx; Control (Abx alone).
Animals were euthanized 14 days after surgery and bone and hardware sent for microbiological analysis, the results of which are shown in FIG. 7.

[5] = system: E. coli; test: Broth dilution MIC, BT-antibiotic combinations; format: cell-based; conditions: Escherichia coli; E. coli Ampicillin/Chloramphenicol resistant; antibiotic alone
Method: Materials & Methods. Susceptibility studies were performed by broth dilution in 96-well tissue culture plates (Nalge Nunc International, Denmark) in accordance with NCCLS protocols (National Committee for Clinical Laboratory Standards. (1997). Methods for Dilution Antimicrobial Susceptibility Tests for Bacteria that Grow Aerobically: Approved Standard M7-A2 and Informational Supplement M100-S10. NCCLS, Wayne, Pa., USA).
Briefly, overnight bacterial cultures were used to prepare 0.5 McFarland standard suspensions, which were further diluted 1:50 (˜2×10^6 cfu/mL) in cation-adjusted Mueller-Hinton broth medium (BBL, Cockeysville, Md., USA). […] Cultures were incubated for 24 h at 37° C. and turbidity was assessed by absorption at 630 nm using an ELISA plate reader (Biotek Instruments, Winooski, Vt., USA) according to the manufacturer's recommendations. […] Viable bacterial counts (cfu/mL) were determined by standard plating on nutrient agar.
The checkerboard method was used to assess the activity of antimicrobial combinations. The fractional inhibitory concentration index (FICI) and the fractional bactericidal concentration index (FBCI) were calculated, according to Eliopoulos et al. (Eliopoulos and Moellering, (1996) Antimicrobial combinations. In Antibiotics in Laboratory Medicine (Lorian, V., Ed.), pp. 330-96, Williams and Wilkins, Baltimore, Md., USA). […]

[6] = system: resistant E. coli; test: MIC in Mueller-Hinton II broth, antibiotic + BisEDT; format: cell-based, Escherichia coli; conditions: Escherichia coli, read-out: Drug + BE MIC, Chloramphenicol/Ampicillin resistant E. coli; BE 0.33 μg/ml
Description: Chloramphenicol and ampicillin resistant Escherichia coli were made sensitive to these drugs by the addition of subMIC BisEDT (Table 24).
Tetracycline resistant Escherichia coli were made sensitive to doxycycline by the addition of subMIC BisEDT (Table 25).

[7] = system: Staphylococcus aureus (MSSA, MRSA, CA-MRSA); test: microbe, parasite or virus in culture; format: cell-based
[8] = system: Staphylococcus aureus (SA, MRSA); test: Single-point BisEDT-antibiotic combination FICI; format: cell-based
[9] = system: Enterococcus faecalis; test: Single-point BisEDT-antibiotic combination FICI; format: cell-based; conditions: E Fc 3121
[10] = system: Escherichia coli; test: Single-point BisEDT-antibiotic combination FICI; format: cell-based
[11] = system: Klebsiella pneumoniae; test: Single-point BisEDT-antibiotic combination FICI; format: cell-based; conditions: KP 1231
[12] = system: Pseudomonas aeruginosa; test: Single-point BisEDT-antibiotic combination FICI; format: cell-based; conditions: PA 1380
[13] = system: Burkholderia cepacia; test: Single-point BisEDT-antibiotic combination FICI; format: cell-based; conditions: Bcep 1756
[14] = system: Bukholderia multivorans; test: Single-point BisEDT-antibiotic combination FICI; format: cell-based; conditions: Bmult 5665
[15] = system: Acinetobacter baumanii; test: Single-point BisEDT-antibiotic combination FICI; format: cell-based; conditions: Abau 2594
[16] = system: Streptococcus pneumoniae (SP, PRSP); test: Single-point BisEDT-antibiotic combination FICI; conditions: PRSP 5348
[17] = system: Enterococcus faecium (VSEfm, VREfm); test: microbe, parasite or virus in culture; format: cell-based; conditions: vancomycin-resistant Enterococcus faecium (VREfm)
[18] = system: Mycobacterium smegmatis; test: Single-point BisEDT-antibiotic combination FICI; format: cell-based; conditions: Msmeg 817
[19] = neutral pH; cited from earlier work

| Molecule | FICI, single-point BisEDT-antibiotic combination ([8]; MRSA 773) | FICI, single-point BisEDT-antibiotic combination ([8]; SA 100) | FICI, single-point BisEDT-antibiotic combination [9] | FICI, single-point BisEDT-antibiotic combination ([10]; EC 2232) | FICI, single-point BisEDT-antibiotic combination [11] | FICI, single-point BisEDT-antibiotic combination [12] | FICI, single-point BisEDT-antibiotic combination [13] | FICI, single-point BisEDT-antibiotic combination [14] | FICI, single-point BisEDT-antibiotic combination [15] | FICI, single-point BisEDT-antibiotic combination [16] | other results |
| --- | --- | --- | --- | --- | --- | --- | --- | --- | --- | --- | --- |
| C1C[S][Bi]([S]CC[S][Bi]2[S]CC[S]2)[S]1 [BisEDT, bismuth-1,2-ethanedithiol] | – | – | – | – | – | – | – | – | – | – | Solubility in MIC test media [1]: trace precipitate; Biofilm at 0.1 μg/ml BisEDT [2]: no biofilm was detected; Effect on S. aureus strains in vitro from PMMA cement beads [3]: inhibitory effects; S. aureus infection detected on hardware, effect on Cefazolin activity [4]: did not appear to affect Cefazolin activity; S. aureus infection of injured bone, effect on Cefazolin activity [4]: enhanced |
| O=C(N[C@H](CO)[C@H](O)c1ccc([N+](=O)[O-])cc1)C(Cl)Cl [CM, chloramphenicol] | – | – | – | – | – | – | – | – | – | – | MIC [5]: 220 µg/mL; MIC [6]: 12.7 µg/mL |
| C[C@@H](O)[C@H]1C(=O)N2C(C(=O)O)=C(SCCN=CN)C[C@H]12 [Imipenem] | 1.48 | 0.67 | 0.73 | 1.29 | 1.23 | 1.12 | 0.73 | 1.23 | 0.81 | 0.43 | MIC90 ([7]; MSSA clinical isolates): 0.03 µg/mL (≈ 0.1 µM); MIC ([7]; S. aureus 29213, one value on a single run, one dilution below published QC range, read-out: MIC, quality control strain): 0.008 µg/mL (≈ 0.0267 µM); FICI, single-point BisEDT-antibiotic combination ([10]; EC 102): 1.11 |
| CC(=O)NC[C@H]1CN(c2ccc(N3CCOCC3)c(F)c2)C(=O)O1 [Linezolid] | 1.23 | 1.23 | 1.23 | – | – | – | – | – | – | 1.11 | MIC90 [17]: 2 µg/mL (≈ 5.93 µM) |
| [H]/N=C(/N)N[C@H]1[C@H](O)[C@@H](O)[C@H](O[C@@H]2O[C@@H](C)[C@](O)(C=O)[C@H]2O[C@@H]2O[C@@H](CO)[C@H](O)[C@@H](O)[C@@H]2NC)[C@@H](N/C(N)=N\[H])[C@@H]1O [Streptomycin] | 0.95 | – | 0.61 | 1.29 | 1.04 | 1.98 | 1.37 | 1.12 | 2.62 | 0.66 | FICI, single-point BisEDT-antibiotic combination [18]: 1.13 |
| Zinc pyrithione | – | – | – | – | – | – | – | – | – | – | Solubility in water [19]: 8 ppm |
